{"source": "patent US20130165440A1", "about": "“JAK1 Inhibitors” (EXELIXIS, INC., priority 2010, published 2013)", "target": "T1, recombinant JAK1 enzyme (Homo sapiens, UniProt P23458)", "T1 construct": "8 nM of recombinant JAK1 enzyme (Insect expressed: V866-K1155); host or cells: insect cells", "T1 sequence (P23458 865-1154 limits assumed)": "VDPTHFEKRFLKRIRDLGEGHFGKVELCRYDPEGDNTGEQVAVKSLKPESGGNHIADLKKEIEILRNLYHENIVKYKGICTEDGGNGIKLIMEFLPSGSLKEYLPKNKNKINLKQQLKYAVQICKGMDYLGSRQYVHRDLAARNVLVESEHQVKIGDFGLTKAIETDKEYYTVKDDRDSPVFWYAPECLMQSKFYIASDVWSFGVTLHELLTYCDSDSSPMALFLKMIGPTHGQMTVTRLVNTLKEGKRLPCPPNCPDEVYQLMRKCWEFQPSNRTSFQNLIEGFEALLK", "experiment": "JAK1 Kinase Assay (luciferase-luciferin-coupled chemiluminescence, ATP consumption)", "type": "biochemical", "conditions": "8 nM JAK1 (V866-K1155), 30 μM IRS-1 peptide (Y608), 2 μM ATP, 2 hours ambient temperature, KinaseGlo; read-out: JAK1 IRS-1tide Chemilum (IC50)", "experimental": "JAK1 Kinase Assay Used to Test Compounds\nJAK1 Kinase activity was measured as the percent of ATP consumed following the kinase reaction using luciferase-luciferin-coupled chemiluminescence. The reaction was conducted in white medium binding 384-well microtiter plates. The kinase reaction were initiated by combining test compounds, 8 nM of recombinant JAK1 enzyme (Insect expressed: V866-K1155), 30 μM of IRS-1 peptide (Y608) and 2 μM ATP in buffer containing 20 mM Hepes (pH 7.5), 10 mM MgCl2, 0.01% Brij, 5% glycerol and 1 mM DTT in a 20 μL volume. The reaction mixture was incubated at ambient temperature for 2 hours. Following the kinase reaction, a 20 μL aliquot of KinaseGlo was added to stop the reaction and measure remaining ATP via detection of chemiluminescence using the Envison reader. Total ATP consumption was limited to 25-60%.", "data": [{"smiles": "CC(=O)c1ccc(-c2nnc(Nc3cc(C(F)(F)F)cc(C(F)(F)F)c3)c3ccccc23)s1", "note": "[Compound 12, 1-[5-(4-{[3,5-bis(trifluoromethyl)phenyl]amino}phthalazin-1-yl)-2-thienyl]ethanone]", "values": [{"measurement": "IC50", "result": "2000 to 30000", "unit": "nM"}]}, {"smiles": "O=Cc1ccc(-c2nnc(Nc3cc(C(F)(F)F)cc(C(F)(F)F)c3)c3ccccc23)cc1", "note": "[Compound 18, 4-(4-{[3,5-bis(trifluoromethyl)phenyl]amino}phthalazin-1-yl)benzaldehyde]", "values": [{"measurement": "IC50", "result": "2000 to 30000", "unit": "nM"}]}, {"smiles": "COC(=O)c1ccc(-c2nnc(Nc3cc(Cl)cc(C(F)(F)F)c3)c3ccccc23)cc1", "note": "[Compound 14, methyl 4-(4-{[3-chloro-5-(trifluoromethyl)phenyl]amino}phthalazin-1-yl)benzoate]", "values": [{"measurement": "IC50", "result": "≤ 150", "unit": "nM"}]}, {"smiles": "COC(=O)c1ccc(-c2nnc(Nc3ccc(F)c(C(F)(F)F)c3)c3ccccc23)cc1", "note": "[Compound 53, methyl 4-(4-{[4-fluoro-3-(trifluoromethyl)phenyl]amino}phthalazin-1-yl)benzoate]", "values": [{"measurement": "IC50", "result": "500 to 1000", "unit": "nM"}]}, {"smiles": "COC(=O)c1ccc(-c2nnc(Nc3cc(C)cc(Br)c3)c3ccccc23)cc1", "note": "[Compound 59, methyl 4-{4-[(3-bromo-5-methylphenyl)amino]phthalazin-1-yl}benzoate]", "values": [{"measurement": "IC50", "result": "150 to 500", "unit": "nM"}]}, {"smiles": "COC(=O)c1ccc(-c2nnc(Nc3cccc(C(F)(F)F)c3)c3ncccc23)cc1", "note": "[Compound 39, methyl 4-(8-{[3-(trifluoromethyl)phenyl]amino}pyrido[2,3-d]pyridazin-5-yl)benzoate]", "values": [{"measurement": "IC50", "result": "2000 to 30000", "unit": "nM"}]}, {"smiles": "O=C1CCCN1c1ccc(-c2nnc(Nc3cc(C(F)(F)F)cc(C(F)(F)F)c3)c3ccccc23)cc1", "note": "[Compound 48, 1-[4-(4-{[3,5-bis(trifluoromethyl)phenyl]amino}phthalazin-1-yl)phenyl]pyrrolidin-2-one]", "values": [{"measurement": "IC50", "result": "2000 to 30000", "unit": "nM"}]}, {"smiles": "FC(F)(F)c1cc(Nc2nnc(-c3ccc4nn[nH]c4c3)c3ccccc23)cc(C(F)(F)F)c1", "note": "[Compound 45, 4-(1H-1,2,3-benzotriazol-6-yl)-N-[3,5-bis(trifluoromethyl)phenyl]phthalazin-1-amine]", "values": [{"measurement": "IC50", "result": "1000 to 2000", "unit": "nM"}]}, {"smiles": "COC(=O)c1ccc(-c2nnc(Nc3ccc(OC)c(C(F)(F)F)c3)c3ccccc23)cc1", "note": "[Compound 34, methyl 4-(4-{[4-(methyloxy)-3-(trifluoromethyl)phenyl]amino}phthalazin-1-yl)benzoate]", "values": [{"measurement": "IC50", "result": "500 to 1000", "unit": "nM"}]}, {"smiles": "COC(=O)c1ccc(-c2nnc(Nc3cc(Br)cc(C(F)(F)F)c3)c3ccccc23)cc1", "note": "[Compound 44, methyl 4(4-{[3-bromo-5-(trifluoromethyl)phenyl]amino}phthalazin-1-yl)benzoate]", "values": [{"measurement": "IC50", "result": "150 to 500", "unit": "nM"}]}, {"smiles": "COC(=O)c1ccc(-c2nnc(Nc3cccc(OC(F)(F)F)c3)c3ccccc23)cc1", "note": "[Compound 43, methyl 4-[4-({3-[(trifluoromethyl)oxy]phenyl}amino)phthalazin-1-yl]benzoate]", "values": [{"measurement": "IC50", "result": "150 to 500", "unit": "nM"}]}, {"smiles": "CCc1cc(Nc2nnc(-c3ccc(C(=O)OC)cc3)c3ccccc23)cc(C(F)(F)F)c1", "note": "[Compound 19, methyl 4-(4-{[3-ethyl-5-(trifluoromethyl)phenyl]amino}phthalazin-1-yl)benzoate]", "values": [{"measurement": "IC50", "result": "≤ 150", "unit": "nM"}]}, {"smiles": "COC(=O)c1ccc(-c2nnc(Nc3cccc(Cl)c3)c3ccccc23)cc1", "note": "[Compound 16, methyl 4-{4-[(3-chlorophenyl)amino]phthalazin-1-yl}benzoate]", "values": [{"measurement": "IC50", "result": "150 to 500", "unit": "nM"}]}, {"smiles": "COC(=O)c1ccc(-c2nnc(Nc3cc(C)cc(C(F)(F)F)c3)c3ccccc23)cc1", "note": "[Compound 65, methyl 4-(4-{[3-methyl-5-(trifluoromethyl)phenyl]amino}phthalazin-1-yl)benzoate]", "values": [{"measurement": "IC50", "result": "≤ 150", "unit": "nM"}]}, {"smiles": "O=c1[nH]ccn1-c1ccc(-c2nnc(Nc3cc(C(F)(F)F)cc(C(F)(F)F)c3)c3ccccc23)cc1", "note": "[Compound 5, 1-[4-(4-{[3,5-bis(trifluoromethyl)phenyl]amino}phthalazin-1-yl)phenyl]-1,3-dihydro-2H-imidazol-2-one]", "values": [{"measurement": "IC50", "result": "≤ 150", "unit": "nM"}]}, {"smiles": "FC(F)(F)c1cc(Nc2nnc(-c3ccc(-c4cc[nH]n4)cc3)c3ccccc23)cc(C(F)(F)F)c1", "note": "[Compound 52, N-[3,5-bis(trifluoromethyl)phenyl]-4-[4-(1H-pyrazol-3-yl)phenyl]phthalazin-1-amine]", "values": [{"measurement": "IC50", "result": "150 to 500", "unit": "nM"}]}]}
